In patent US10272117B2, “Methods of using an activator of cereblon for neural cell expansion and the treatment of central nervous system disorders” (Celgene Corporation, priority 2014, dated 2019):
Peptide text beside a SMILES is read from it. * marks the point of attachment. Cbz = O=C(OCc1ccccc1)*

Assays:
CRBN = test: Detection of the CRBN ubiquitin ligase activity using live cells; format: cell-based; settings: mammalian cells expressing FLAG-CRBN, immunoblotting
Description: This process was carried out basically in accordance with the method of Ohtake et al. See Ohtake et al., Nature, 446:562-566 (2007). MG132, which was a proteasome inhibitor, was applied to mammalian cells expressing CRBN fused with a FLAG epitope tag, and the cells were left still. Subsequently, the cells were disrupted, and from the resulting cell lysate solution, FLAG was purified, and CRBN was extracted. Then immunoblotting was performed under similar, but stricter, conditions to the above, whereby self-ubiquitination was detected and measured.

zebrafish embryos = test: Quantitative PCR of gene expression in zebrafish embryos; format: in vivo; settings: 11 hpf
Description: BRD7-knockdown zebrafish embryos show similar phenotypes as CRBN-overexpressing zebrafish embryos. For example, expression of HuC in untreated, CRBN-overexpressing, and BRD7-knockdown zebrafish embryos was compared by quantitative PCR. Quantitative PCR was performed as follows: 1.7 μg of random […] and oligo-dT primed cDNA synthesized by ReverTra Ace qPCR RT Kit (TOYOBO, Japan) (as template) were used for reverse transcription by THUNDERBIRD™ SYBR® qPCR Mix (Toyobo, Japan). 0.25 mM of each forward and reverse primers were used in the reaction, wherein the sequence of the forward primer was 5′-[…]-3′ (SEQ ID NO: 9); and the sequence of the reverse primer was 5′-[…]-3′ (SEQ ID NO: 10).
Expression of Pou5f1 (Oct3/4), c-Myc, Sox2, and Nanog in zebrafish embryos was analyzed by quantitative PCR. Quantitative RT (qRT)-PCR was performed as follows: 1.7 μg of random hexamer and oligo-dT primed cDNA synthesized by ReverTra Ace qPCR RT Kit (TOYOBO, Japan) (as template) were used for reverse transcription by THUNDERBIRD™ SYBR® qPCR Mix (Toyobo, Japan). 0.25 mM of each forward and reverse primers was used in the reaction. The sequences of primers for c-Myc are as follows: forward primer is 5′-[…]-3′ (SEQ ID NO: 15), and reverse primer is 5′-GTAAAACGACGGCCAGT-3′ (SEQ ID NO: 16). The sequences of primers for sox2 are as follows: forward primer is 5′-ACCCCGGAGGAAAACCAA-3′ (SEQ ID NO: 17), and reverse primer is 5′-CCCGGCAGGGTGTACTTG-3′ (SEQ ID NO: 18). The sequences of primers for nanog are as follows: forward primer is 5′-TACCCAACACACCAGCTTC-3′ (SEQ ID NO: 19), and reverse primer is 5′-GAAGGGTGTTTTTGGAGGA-3′ (SEQ ID NO: 20).
Expression of a pool of three genes, Ascl1, Brn2 (Pou3f2), and Myt1la, is sufficient to directly reprogram embryonic and postnatal fibroblasts into functional neurons. See, e.g., Vierbuchen and Wernig, Nat Biotechnol. 29:892-907 […]. […] Primer sequences for amplification for Ascl1a are as follows: forward primer is 5′-ACGAGCATGACGCCGTA-3′ (SEQ ID NO: 21), and reverse primer is 5′-[…]-3′ (SEQ ID NO: 22). Primer sequences for amplification for Pou3f2b are as follows: forward primer is 5′-[…]-3′ (SEQ ID NO: 23), and reverse primer is 5′-[…]-3′(SEQ ID NO: 24). Primer sequences for amplification for Myt1la are as follows: forward primer is 5′-[…]-3′ (SEQ ID NO: 25), and reverse primer is 5′-[…]-3′ (SEQ ID NO: 26). FIG. […]
Notch3 and Neuropilin2b (Nrp2b) are required for cell proliferation progression. Notch3 regulates the timing of neural differentiation from undifferentiated or immature cells, and Nrp2b regulates cell proliferation and remodeling in mesenchymal stem cells by cooperating with PDGF (platelet-derived growth factor). Therefore, expression of Notch3 and Neuropilin 2b (Nrp2b) was analyzed in untreated and CRBN-overexpressing zebrafish embryos by quantitative PCR. The primers used for Notch3 are as follows: the sequence for forward primer is 5′-[…]-3′ (SEQ ID NO: 27), and the sequence for reverse primer is 5′-[…]-3′ (SEQ ID NO: 28). The primers used for Nrp2b are as follows: the sequence of forward primer is 5′-[…]-3′ (SEQ ID NO: 29), and the sequence of reverse primer is 5′-[…]-3′ (SEQ ID NO: 30). FIG. 29A is a histogram showing the mRNA level of Notch3 and Nrp2b in untreated, CRBN-overexpressing, and thalidomide-treated zebrafish embryos at 11 hpf by quantitative PCR. As shown, expression of Notch3 in the CRBN-overexpressing embryos increased to 1.8-fold of the level in the untreated embryos at 11 hpf, and expression of Nrp2b in the CRBN-overexpressing embryos increased to 2.7-fold of the level in the untreated embryos at the same stage.
Elval3 (Huc) is a neural progenitor marker. Expression of Elavl3 (Huc) was also analyzed by quantitative PCR and in situ hybridization. […]

zebrafish = test: Resistance to thalidomide in brain development (brain thickness to body length); format: in vivo; settings: BRD7-knockdown larvae, 400 μM thalidomide
Description: To analyze the functional relationship between thalidomide and BRD7, brain development of BRD7-knockdown zebrafish treated with thalidomide was examined and compared with that of normal zebrafish treated with thalidomide. […] FIGS. 12A and 12B show the normal zebrafish treated with 400 μM thalidomide. FIGS. 12C and 12D show the BRD7-knockdown zebrafish treated with 400 μM thalidomide. FIGS. 12A′ and 12C′ show the brain regions of the normal zebrafish treated with 400 μM thalidomide. FIGS. 12B′ and 12D′ show the brain regions of the BRD7-knockdown zebrafish treated with 400 μM thalidomide. […] The percentages of brain thickness to body length in the normal and the BRD7-knockdown zebrafish, with or without thalidomide treatments were also measured. […] The brain size of the BRD7-knockdown larvae incubated in thalidomide is 98.8% of that of the BRD7-knockdown larvae incubated in the absence of thalidomide.

[1] = fold of level in untreated embryos

CC(C)C[C@@H](C=O)NC(=O)[C@H](CC(C)C)NC(=O)[C@H](CC(C)C)NC(=O)OCc1ccccc1 [MG132] (Cbz-Leu-Leu-Leu-aldehyde)
bands representing CRBN-containing (self-ubiquitinated) proteins (CRBN): a number of bands representing CRBN-containing proteins were detected

O=C1CCC(N2C(=O)c3ccccc3C2=O)C(=O)N1 (stereo not shown) [thalidomide, reference compound]
expression of Nanog (change) (zebrafish embryos; FIG. 13): decreased
expression of Pou5f1 (change) (zebrafish embryos; FIG. 13): decreased
expression of Zic3 (change) (zebrafish embryos; FIG. 13): decreased
Notch3 mRNA expression (zebrafish embryos; [1]): 0.3 fold
Nrp2b mRNA expression (zebrafish embryos; [1]): 0.4 fold
brain size of BRD7-knockdown larvae incubated in thalidomide relative to absence of thalidomide (zebrafish): 98.8%
